Laboratory results from patent US10898469B2, “Imidazolylamide derivative” (Sumitomo Dainippon Pharma Co., Ltd., priority 2016, dated 2021).

Experiments:
[1] = Pharmacokinetic assay in tumor-bearing mice where HCT-116 cells were transplanted (Test Example 3); format: in vivo; settings: female, BALB/cAnNCrlj-nu/nu, plasma, tumor-bearing nude mouse, oral single dose 150 mg/kg, 0.5% methylcellulose
Description: A 7- to 12-week-old nude mouse (BALB/cAnNCrlj-nu/nu, female, CHARLES RIVER LABORATORIES JAPAN, INC.) received intradermal transplantation of human colorectal cancer-derived HCT-116 cells (ATCC) in an amount of 3×10^6 cells/mouse around the ventral part. […] Blood was collected 1, 2, 6, and 24 hours after administration, and centrifuged to afford plasma samples. Methanol was added to the plasma samples so as to be adjusted to 80% of the final concentration. The samples were centrifuged and filtered to be deproteinized. Then, the test compound was detected and quantitated with LC-MS/MS (API4000, AB SCIEX). In quantitation, a calibration curve was prepared with mouse plasma comprising a known amount of the compound and Bezafibrate was used for the internal standard.
The test in Test Example 3 was performed for the compounds of Examples.
The following table and FIGS. 1 to 5 show temporal changes of the plasma concentrations of compounds after oral administration.

FaDu cells [2] = test: Inhibition test for sphere-forming ability of cancer cells (Test Example 1), FaDu; format: cell-based, human; settings: concentration for 50% inhibition of cell proliferation, read-out: IC50 (μmol/L) FaDu (Sphere IC50 value)
Outline: (§1)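 Luminescent ATP viability readout (CellTiter-Glo) after 4 days of compound exposure gave the concentration for 50% inhibition of sphere proliferation. Cells grew as spheres at 350-800 cells/well under ultra-low attachment in serum-free medium containing B27, EGF and bFGF, with 0.1% final DMSO.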

HCT-116 cells [3] = test: Inhibition test for sphere-forming ability of cancer cells in the presence of BSA (Test Example 2), HCT-116; format: cell-based, human; settings: for IC50: HCT-116 cells, in the presence of 5% BSA, cultured 4 days
Outline: (§2)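 Spheres grown 4 days in ultra-low-attachment wells, 350-800 cells/well, in DMEM/F12 with 2% B27, 20 ng/mL EGF, 10 ng/mL bFGF, 5 μg/mL insulin and 5% BSA; 0.1% DMSO final. Viable cells read by CellTiter-Glo luminescence; Sphere IC50 (μmol/L) for 50% proliferation inhibition.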

HT-29 cells [4] = test: Inhibition test for sphere-forming ability of cancer cells (Test Example 1), HT-29; format: cell-based, human; settings: concentration for 50% inhibition of cell proliferation, read-out: IC50 (μmol/L) HT-29 (Sphere IC50 value)
Outline: as §1

HCT-116 cells [5] = test: Inhibition test for sphere-forming ability of cancer cells (Test Example 1), HCT-116; format: cell-based, human; settings: for IC50: HCT-116 cells, concentration for 50% inhibition of cell proliferation, read-out: IC50 (μmol/L) HCT-116 (Sphere IC50 value); for inhibitory effect on the sphere-forming ability of cancer cells: Test Example 1, summary in words, cell line not given (HCT-116, HT-29, FaDu tested)
Outline: as §1

FaDu cells [6] = test: Inhibition test for sphere-forming ability of cancer cells in the presence of BSA (Test Example 2), FaDu; format: cell-based, human; settings: in the presence of 5% BSA, cultured 4 days
Description: Human colorectal cancer-derived HCT-116 cells, human colon-adenocarcinoma-derived HT-29 cells, and human pharyngeal cancer-derived FaDu cells were available from American Type Culture Collection (ATCC). HCT-116 cells and HT-29 cells were cultured at 37° C. under 5% CO2 using the McCoy's 5a medium containing 10% fetal bovine serum (FBS) and 1% penicillin/streptomycin, and FaDu cells were cultured at 37° C. under 5% CO2 using the MEM medium containing 10% FBS, 1% non-essential amino acid, 1% sodium pyruvate, 5% bovine serum albumin (BSA), and 1% penicillin/streptomycin. HCT-116 cells, HT-29 cells, and FaDu cells were seeded in a 384 Well Black Clear Bottom Ultra-Low Attachment Microplate (Corning Cat. No. 3827) in an amount of 350-800 cells/well using the DMEM/F12 medium containing 2% B27 supplement (GIBCO), 20 ng/mL epidermal growth factor (EGF) (peprotech), 10 ng/mL basic fibroblast growth factor (bFGF) (peprotech), 5 μg/mL insulin (Sigma), 5% bovine serum albumin (BSA), and 1% penicillin/streptomycin. Each test compound was added into each well to adjust the final concentration of DMSO to 0.1%, and the cells were cultured for 4 days. The number of viable cells in each well was then measured with CellTiter-Glo® Luminescent Cell Viability Assay (Promega) to calculate the concentration of each test compound for 50% inhibition of cell proliferation (Sphere IC50 value; μmol/L).
The experiment of Test Example 2 was performed for each compound of each Example.
The concentration of each test compound for 50% inhibition of cell proliferation (Sphere IC50 value; μmol/L) is shown in the following Table.

HT-29 cells [7] = test: Inhibition test for sphere-forming ability of cancer cells in the presence of BSA (Test Example 2), HT-29; format: cell-based, human; settings: in the presence of 5% BSA, cultured 4 days
Outline: as §2

SMILES | IC50 (FaDu cells [2]) | IC50 (HCT-116 cells [3]) | IC50 (HT-29 cells [4]) | IC50 (HCT-116 cells [5]) | IC50 (FaDu cells [6]) | IC50 (HT-29 cells [7]) | other results
O=C(/C=C/c1cccnc1)Nc1cn(Cc2cccc(Cl)c2)cn1 [Example 120, (E)-N-(1-(3-chlorobenzyl)-1H-imidazol-4-yl)-3-(pyridin-3-yl)acrylamide] |  |  |  |  |  |  | concentration at 1 h ([1]; 1 hour, read-out: Plasma concentrations after oral administration, 1 hour): 9220 ng/mL; concentration at 2 h ([1]; 2 hours, read-out: Plasma concentrations after oral administration, 2 hours): 7040 ng/mL; concentration at 6 h ([1]; 6 hours, read-out: Plasma concentrations after oral administration, 6 hours): 1200 ng/mL; concentration at 24 h ([1]; 24 hours, read-out: Plasma concentrations after oral administration, 24 hours): 142 ng/mL
COc1ccc(C(=O)Nc2cn(Cc3c(F)cccc3F)cn2)cc1OC [Example 150] | 6.21 µmol/L | > 10000 nM | 3.56 µmol/L | 0.69 µmol/L | 7810 nM | > 10000 nM | 
COc1ccc(C(=O)Nc2cn(Cc3ccc(F)c(F)c3)cn2)cc1OC [Example 151, 3,4-dimethoxy-N-[1-(3,4-difluorobenzyl)-1H-imidazol-4-yl]benzamide] |  |  |  |  |  |  | IC50 (FaDu cells [2]; Homo sapiens): 0.31 µmol/L; IC50 (HCT-116 cells [3]; Homo sapiens, HCT-116, 96 h): 650 nM; IC50 (HT-29 cells [4]; Homo sapiens): 0.09 µmol/L; IC50 (HCT-116 cells [5]; Homo sapiens): 0.35 µmol/L; inhibitory effect on the sphere-forming ability of cancer cells (HCT-116 cells [5]): particularly potent inhibitory effect; IC50 (FaDu cells [6]; Homo sapiens, 96 h): 330 nM; IC50 (HT-29 cells [7]; Homo sapiens, 96 h): 550 nM
COc1ccc(C(=O)Nc2cn(Cc3cc(F)cc(F)c3)cn2)cc1OC [Example 152, 3,4-dimethoxy-N-[1-(3,5-difluorobenzyl)-1H-imidazol-4-yl]benzamide] |  |  |  |  |  |  | IC50 (FaDu cells [2]; Homo sapiens): 0.42 µmol/L; IC50 (HCT-116 cells [3]; Homo sapiens, HCT-116, 96 h): 570 nM; IC50 (HT-29 cells [4]; Homo sapiens): 0.09 µmol/L; IC50 (HCT-116 cells [5]; Homo sapiens): 0.09 µmol/L; inhibitory effect on the sphere-forming ability of cancer cells (HCT-116 cells [5]): particularly potent inhibitory effect; IC50 (FaDu cells [6]; Homo sapiens, 96 h): 150 nM; IC50 (HT-29 cells [7]; Homo sapiens, 96 h): 630 nM
COc1ccc(C(=O)Nc2cn(Cc3ccc(F)c(F)c3F)cn2)cc1OC [Example 153] | 0.82 µmol/L | 6390 nM | 0.73 µmol/L | 0.66 µmol/L | 660 nM | 3200 nM | 
COc1ccc(C(=O)Nc2cn(Cc3cc(F)cc(F)c3F)cn2)cc1OC [Example 154] | 0.88 µmol/L | > 10000 nM | 0.8 µmol/L | 0.71 µmol/L | 600 nM | 890 nM | 
COc1ccc(C(=O)Nc2cn(Cc3c(F)ccc(F)c3F)cn2)cc1OC [Example 155] | 8.72 µmol/L | > 10000 nM | 6.62 µmol/L | 3.05 µmol/L | 7030 nM | > 10000 nM | 
COc1ccc(C(=O)Nc2cn(Cc3cc(F)c(F)c(F)c3F)cn2)cc1OC [Example 156] | 0.55 µmol/L | 5070 nM | 0.39 µmol/L | 0.54 µmol/L | 420 nM | 590 nM | 
COc1ccc(C(=O)Nc2cn(Cc3c(F)c(F)c(F)c(F)c3F)cn2)cc1OC [Example 157] | 8.46 µmol/L | > 10000 nM | 6.89 µmol/L | 7.33 µmol/L | 5640 nM | 7420 nM | 
COc1ccc(C(=O)Nc2cn(Cc3ccc(F)cc3C(F)(F)F)cn2)cc1OC [Example 163] | 1.73 µmol/L | > 10000 nM | 1.51 µmol/L | 3.56 µmol/L | 5040 nM | 5460 nM | 
O=C(Nc1cn(Cc2cccc(Cl)c2)cn1)c1cnc2[nH]ccc2c1 [Example 177] | 3.62 µmol/L | > 10000 nM | 6.75 µmol/L | 9.96 µmol/L | 5260 nM | 6390 nM | 
CNc1ccc(C(=O)Nc2cn(Cc3cccc(Cl)c3)cn2)cn1 [Example 225] | 6 µmol/L | > 10000 nM | 0.99 µmol/L | 6.76 µmol/L | 5900 nM | 6520 nM | 
COc1ccc(C(=O)Nc2cn(Cc3cc(F)c(F)c(F)c3)cn2)cc1OC [Example 236, 3,4-dimethoxy-N-[1-(3,4,5-trifluorobenzyl)-1H-imidazol-4-yl]benzamide] |  |  |  |  |  |  | IC50 (FaDu cells [2]; Homo sapiens): 0.05 µmol/L; IC50 (HCT-116 cells [3]; Homo sapiens, HCT-116, 96 h): 360 nM; inhibitory effect on the sphere-forming ability of cancer cells (HCT-116 cells [3]; Test Example 2, in the presence of 5% BSA, summary in words, cell line not given (HCT-116, HT-29, FaDu tested)): particularly potent inhibitory effect; IC50 (HT-29 cells [4]; Homo sapiens): 0.05 µmol/L; IC50 (HCT-116 cells [5]; Homo sapiens): 0.06 µmol/L; inhibitory effect on the sphere-forming ability of cancer cells (HCT-116 cells [5]): particularly potent inhibitory effect; IC50 (FaDu cells [6]; Homo sapiens, 96 h): 40 nM; IC50 (HT-29 cells [7]; Homo sapiens, 96 h): 60 nM
CC(=O)Nc1ccc(C(=O)Nc2cn(Cc3cccc(Cl)c3)cn2)cn1 [Example 247, 6-(Acetylamino)-N-[1-(3-chlorobenzyl)-1H-imidazol-4-yl]nicotinamide] |  |  |  |  |  |  | IC50 (FaDu cells [2]; Homo sapiens): 7.25 µmol/L; IC50 (HCT-116 cells [3]; Homo sapiens, HCT-116, 96 h): 9840 nM; IC50 (HT-29 cells [4]; Homo sapiens): 0.42 µmol/L; IC50 (HCT-116 cells [5]; Homo sapiens): 9.22 µmol/L; IC50 (FaDu cells [6]; Homo sapiens, 96 h): 6800 nM; IC50 (HT-29 cells [7]; Homo sapiens, 96 h): 7150 nM
COc1ccc(NC(=O)c2cn(Cc3cc(F)c(F)c(F)c3)cn2)cc1OC [Example 251, N-(3,4-Dimethoxyphenyl)-1-(3,4,5-trifluorobenzyl)-1H-imidazole-4-carboxamide] |  |  |  |  |  |  | IC50 (FaDu cells [2]; Homo sapiens): 0.43 µmol/L; IC50 (HCT-116 cells [3]; Homo sapiens, HCT-116, 96 h): 770 nM; IC50 (HT-29 cells [4]; Homo sapiens): 0.54 µmol/L; IC50 (HCT-116 cells [5]; Homo sapiens): 0.21 µmol/L; IC50 (FaDu cells [6]; Homo sapiens, 96 h): 550 nM; IC50 (HT-29 cells [7]; Homo sapiens, 96 h): 600 nM
O=C(Nc1ccc2c(O)cccc2c1)c1cn(Cc2cccc(Cl)c2)cn1 [Example 256] | 0.65 µmol/L | 6170 nM | 7.24 µmol/L | 4.97 µmol/L | 4410 nM | 6610 nM | 
Cc1csc(NC(=O)c2cn(Cc3cccc(Cl)c3)cn2)n1 [Example 257] | 0.71 µmol/L | 7460 nM | 0.8 µmol/L | 0.8 µmol/L | 4440 nM | 5990 nM | 
Cc1cccc(NC(=O)c2cn(Cc3cccc(Cl)c3)cn2)n1 [Example 258] | 0.71 µmol/L | 9060 nM | 0.7 µmol/L | 0.77 µmol/L | 5190 nM | 5750 nM | 
O=C(Nc1ccc(Cn2cccn2)cc1)c1cn(Cc2cccc(Cl)c2)cn1 [Example 260] | 0.67 µmol/L | 6810 nM | 0.71 µmol/L | 0.76 µmol/L | 3090 nM | 4090 nM | 
O=C(Nc1ccncn1)c1cn(Cc2cccc(Cl)c2)cn1 [Example 261] | 0.59 µmol/L | 860 nM | 0.46 µmol/L | 0.61 µmol/L | 480 nM | 520 nM | 
